32 compounds from patent US20250170141A1, “MRGPRX2 MODULATORS AND RELATED METHODS OF TREATMENT” (Escient Pharmaceuticals, Inc., priority 2023, published 2025) can be followed below.

Molecules are shown by their SMILES.

In the assay the target is T1, human MRGPRX2 (Homo sapiens, UniProt Q96LB1).
T1 construct: expressed in transfected cells; host or cells: CHO cells, stably transfected (G418 and Hygromycin B selection)
T1 sequence (Q96LB1 1-330): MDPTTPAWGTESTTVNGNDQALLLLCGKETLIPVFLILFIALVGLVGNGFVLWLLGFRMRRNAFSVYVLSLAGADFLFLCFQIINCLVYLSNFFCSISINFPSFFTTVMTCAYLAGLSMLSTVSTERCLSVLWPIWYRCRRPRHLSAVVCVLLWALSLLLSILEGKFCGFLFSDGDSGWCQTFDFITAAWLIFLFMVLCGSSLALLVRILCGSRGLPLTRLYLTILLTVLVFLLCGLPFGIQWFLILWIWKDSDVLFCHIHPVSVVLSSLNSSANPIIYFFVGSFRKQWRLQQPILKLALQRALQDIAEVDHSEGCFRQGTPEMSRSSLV
Briefly: MRGPRX2 activity: IP-One Gq HTRF assay in CHO cells, antagonism versus 0.3 uM Cortistatin-14. In kind it is cell-based. Conditions: versus 0.3 uM Cortistatin-14 agonist, CHO cells expressing human MRGPRX2, read-out: MRGPRX2 Antagonist Activity. The method in brief: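 CHO cells stably expressing human MRGPRX2 were treated with a 10-point compound curve (30 uM top, 1:3) plus 0.3 μM Cortistatin-14 in LiCl-containing Tris buffer, pH 8. Incubation was 1 h at 37 °C then 1 h at room temperature; IP-1 was detected by HTRF and IC50 came from the HTRF ratio.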
A general note: In TR-FRET formats the signal depends on donor and acceptor labels being close together.
With `O=S1(=O)N=C(NCc2cccc(F)n2)Nc2c1cc(F)c(F)c2Cc1ccccc1Cl` [Compound 4-11, 5-(2-chlorobenzyl)-6,7-difluoro-3-(((6-fluoropyridin-2-yl)methyl)amino)-4H-benzo[e][1,2,4]thiadiazine 1,1-dioxide], the IC50 fell in the range of 100 to 500 nM.
With `O=S1(=O)N=C(NCc2cccc(F)c2)Nc2c1cc(F)c(F)c2Cc1ccccc1Cl` [Compound 4-12, 5-(2-chlorobenzyl)-6,7-difluoro-3-((3-fluorobenzyl)amino)-4H-benzo[e][1,2,4]thiadiazine 1,1-dioxide], the IC50 lay within 100 to 500 nM.
For the compound `O=S1(=O)N=C(NCc2ccc(F)cc2)Nc2c1cc(F)c(F)c2Cc1ccccc1Cl` [Compound 4-13, 5-(2-chlorobenzyl)-6,7-difluoro-3-((4-fluorobenzyl)amino)-4H-benzo[e][1,2,4]thiadiazine 1,1-dioxide], the IC50 was in the range of 501 to 1000 nM.
Turning to `O=S1(=O)N=C(NCc2cccc(Cl)c2F)Nc2c1cc(F)c(F)c2Cc1ccccc1Cl` [Compound 4-14, 3-((3-chloro-2-fluorobenzyl)amino)-5-(2-chlorobenzyl)-6,7-difluoro-4H-benzo[e][1,2,4]thiadiazine 1,1-dioxide], the IC50 lay within 100 to 500 nM.
For the compound `CC(C)c1ccc(NC2=NS(=O)(=O)c3cc(F)c(F)c(Cc4ccccc4Cl)c3N2)cc1` [Compound 4-15, 5-(2-chlorobenzyl)-6,7-difluoro-3-((4-isopropylphenyl)amino)-4H-benzo[e][1,2,4]thiadiazine 1,1-dioxide], the IC50 is over 2500 nM.
As for `O=S1(=O)N=C(NCc2ccccc2C(F)(F)F)Nc2c1cc(F)c(F)c2Cc1ccccc1Cl` [Compound 4-16, 5-(2-chlorobenzyl)-6,7-difluoro-3-((2-(trifluoromethyl)benzyl)amino)-4H-benzo[e][1,2,4]thiadiazine 1,1-dioxide], the IC50 was 100 to 500 nM.
With `O=S1(=O)N=C(NCc2cnccc2C(F)(F)F)Nc2c1cc(F)c(F)c2Cc1ccccc1Cl` [Compound 4-17, 5-(2-chlorobenzyl)-6,7-difluoro-3-(((4-(trifluoromethyl)pyridin-3-yl)methyl)amino)-4H-benzo[e][1,2,4]thiadiazine 1,1-dioxide], the IC50 was in the range of 100 to 500 nM.
`O=S1(=O)N=C(NCc2ncccc2O)Nc2c1cc(F)c(F)c2Cc1ccccc1Cl` [Compound 4-18, 5-(2-chlorobenzyl)-6,7-difluoro-3-(((3-hydroxypyridin-2-yl)methyl)amino)-4H-benzo[e][1,2,4]thiadiazine 1,1-dioxide]: the IC50 is over 2500 nM.
As for `O=S1(=O)N=C(Nc2ccc(F)cc2)Nc2c1cc(F)c(F)c2Cc1ccccc1Cl` [Compound 4-19, 5-(2-chlorobenzyl)-6,7-difluoro-3-((4-fluorophenyl)amino)-4H-benzo[e][1,2,4]thiadiazine 1,1-dioxide], the IC50 is 501 to 1000 nM.
As to `O=S1(=O)N=C(NCc2cccc3ccccc23)Nc2c1cc(F)c(F)c2Cc1ccccc1Cl` [Compound 4-20, 5-(2-chlorobenzyl)-6,7-difluoro-3-((naphthalen-1-ylmethyl)amino)-4H-benzo[e][1,2,4]thiadiazine 1,1-dioxide], the IC50 fell in the range of 501 to 1000 nM.
Turning to `Cc1cccc(C)c1Cc1c(F)ccc2c1NC(NCc1ncccc1F)=NS2(=O)=O` [Compound 5-1, 5-(2,6-dimethylbenzyl)-6-fluoro-3-(((3-fluoropyridin-2-yl)methyl)amino)-4H-benzo[e][1,2,4]thiadiazine 1,1-dioxide], the IC50 is under 100 nM.
To `O=S1(=O)N=C(NCc2ncccc2F)Nc2c1ccc(F)c2CCc1ccccc1` [Compound 6-1, 6-fluoro-3-(((3-fluoropyridin-2-yl)methyl)amino)-5-phenethyl-4H-benzo[e][1,2,4]thiadiazine 1,1-dioxide] belongs 100 to 500 nM.
In the case of `O=S1(=O)N=C(NCc2ccccc2F)Nc2c(Cc3ccccc3Cl)cccc21` [Compound 6-2, 5-(2-chlorobenzyl)-3-((2-fluorobenzyl)amino)-4H-benzo[e][1,2,4]thiadiazine 1,1-dioxide], the IC50 was under 100 nM.
Regarding `O=S1(=O)N=C(NCc2ccccc2F)Nc2c(Cc3ccccc3)cccc21` [Compound 6-3, 5-benzyl-3-((2-fluorobenzyl)amino)-4H-benzo[e][1,2,4]thiadiazine 1,1-dioxide], the IC50 is under 100 nM.
As to `O=S1(=O)N=C(NCc2ccccc2F)Nc2c(Cc3c(Cl)cccc3Cl)cccc21` [Compound 6-5, 5-(2,6-dichlorobenzyl)-3-((2-fluorobenzyl)amino)-4H-benzo[e][1,2,4]thiadiazine 1,1-dioxide], the IC50 is under 100 nM.
In the case of `O=S1(=O)N=C(NCc2ccccc2F)Nc2c(Cc3ccccc3F)cccc21` [Compound 6-6, 5-(2-fluorobenzyl)-3-((2-fluorobenzyl)amino)-4H-benzo[e][1,2,4]thiadiazine 1,1-dioxide], the IC50 is under 100 nM.
Take `Cc1ccccc1Cc1cccc2c1NC(NCc1ccccc1F)=NS2(=O)=O` [Compound 6-7, 3-((2-fluorobenzyl)amino)-5-(2-methylbenzyl)-4H-benzo[e][1,2,4]thiadiazine 1,1-dioxide]: the IC50 is under 100 nM.
Consider `O=S1(=O)N=C(NCc2ccccc2F)Nc2c(Cc3cccc(F)c3)cccc21` [Compound 6-8, 5-(3-fluorobenzyl)-3-((2-fluorobenzyl)amino)-4H-benzo[e][1,2,4]thiadiazine 1,1-dioxide], for which the IC50 was under 100 nM.
Turning to `COc1cccc(Cc2cccc3c2NC(NCc2ccccc2F)=NS3(=O)=O)c1` [Compound 6-9, 3-((2-fluorobenzyl)amino)-5-(3-methoxybenzyl)-4H-benzo[e][1,2,4]thiadiazine 1,1-dioxide], the IC50 is under 100 nM.
Turning to `Cc1cccc(Cc2cccc3c2NC(NCc2ccccc2F)=NS3(=O)=O)c1` [Compound 6-10, 3-((2-fluorobenzyl)amino)-5-(3-methylbenzyl)-4H-benzo[e][1,2,4]thiadiazine 1,1-dioxide], the IC50 was under 100 nM.
Regarding `O=S1(=O)N=C(NCc2ccccc2F)Nc2c(Cc3cccc(Cl)c3)cccc21` [Compound 6-11, 5-(3-chlorobenzyl)-3-((2-fluorobenzyl)amino)-4H-benzo[e][1,2,4]thiadiazine 1,1-dioxide], the IC50 was under 100 nM.
Turning to `N#Cc1cccc(Cc2cccc3c2NC(NCc2ccccc2F)=NS3(=O)=O)c1` [Compound 6-12, 3-((3-((2-fluorobenzyl)amino)-1,1-dioxido-4H-benzo[e][1,2,4]thiadiazin-5-yl)methyl)benzonitrile], the IC50 was under 100 nM.
`O=S1(=O)N=C(NCc2ccccc2F)Nc2c(Cc3ccc(Cl)cc3)cccc21` [Compound 6-13, 5-(4-chlorobenzyl)-3-((2-fluorobenzyl)amino)-4H-benzo[e][1,2,4]thiadiazine 1,1-dioxide]: the IC50 is 100 to 500 nM.
Regarding `O=S1(=O)N=C(NCc2ccccc2F)Nc2c(Cc3ccc(F)cc3)cccc21` [Compound 6-14, 5-(4-fluorobenzyl)-3-((2-fluorobenzyl)amino)-4H-benzo[e][1,2,4]thiadiazine 1,1-dioxide], the IC50 is under 100 nM.
On to `COc1ccc(Cc2cccc3c2NC(NCc2ccccc2F)=NS3(=O)=O)cc1` [Compound 6-15, 3-((2-fluorobenzyl)amino)-5-(4-methoxybenzyl)-4H-benzo[e][1,2,4]thiadiazine 1,1-dioxide], for which the IC50 was in the range of 100 to 500 nM.
In the case of `Cc1ccc(Cc2cccc3c2NC(NCc2ccccc2F)=NS3(=O)=O)cc1` [Compound 6-16, 3-((2-fluorobenzyl)amino)-5-(4-methylbenzyl)-4H-benzo[e][1,2,4]thiadiazine 1,1-dioxide], the IC50 was in the range of 100 to 500 nM.
Consider `Cc1cccc(C)c1Cc1cccc2c1NC(NCc1ccccc1F)=NS2(=O)=O` [Compound 6-17, 5-(2,6-dimethylbenzyl)-3-((2-fluorobenzyl)amino)-4H-benzo[e][1,2,4]thiadiazine 1,1-dioxide], for which the IC50 is under 100 nM.
Turning to `O=S1(=O)N=C(NCc2ccccc2F)Nc2c(CCc3ccccc3)cccc21` [Compound 6-18, 3-((2-fluorobenzyl)amino)-5-phenethyl-4H-benzo[e][1,2,4]thiadiazine 1,1-dioxide], the IC50 was under 100 nM.
On to `O=S1(=O)N=C(NCc2ccccc2F)Nc2c(C3(c4ccccc4)CC3)cccc21` [Compound 6-19, 3-((2-fluorobenzyl)amino)-5-(1-phenylcyclopropyl)-4H-benzo[e][1,2,4]thiadiazine 1,1-dioxide], for which the IC50 is under 100 nM.
As for `CC(c1cccc(F)c1Cl)c1c(F)ccc2c1NC(NCc1ncccc1F)=NS2(=O)=O` (centres unmarked) [Compound 7-1, 5-(1-(2-chloro-3-fluorophenyl)ethyl)-6-fluoro-3-(((3-fluoropyridin-2-yl)methyl)amino)-4H-benzo[e][1,2,4]thiadiazine 1,1-dioxide], the figure is under 100 nM; as for `Cc1c(F)cccc1CNC1=NS(=O)(=O)c2ccc(F)c(C(C)c3cccc(F)c3Cl)c2N1` (centres unmarked) [Compound 7-2, 5-(1-(2-chloro-3-fluorophenyl)ethyl)-6-fluoro-3-((3-fluoro-2-methylbenzyl)amino)-4H-benzo[e][1,2,4]thiadiazine 1,1-dioxide], under 100 nM; as for `CC(c1ccccc1F)c1c(F)ccc2c1NC(NCc1cccnc1)=NS2(=O)=O` (centres unmarked) [Compound 7-3, 6-fluoro-5-(1-(2-fluorophenyl)ethyl)-3-((pyridin-3-ylmethyl)amino)-4H-benzo[e][1,2,4]thiadiazine 1,1-dioxide], 100 to 500 nM.
